Values after ≈ are worked out from the molar mass of the structure shown. Active and inactive are the calls of the source. No cut-off for these calls is given here.
Legend:
Staphylococcus aureus [1] = assay: In vivo antimicrobial activity against Staphylococcus aureus Newman infected in Caenorhabditis elegans AU37 nematodes assessed as viability of nematodes incubated for 5 days by susceptibility test; type: functional; conditions: 120 h, time 5 day
Cell membrane = assay: Induction of membrane permeability in Staphylococcus aureus ATCC 700699 assessed as increase in fluorescence intensity at 4 times of MIC incubated for 15 mins measured for 1 hr by propidium iodide/real time fluorescence based flow cytometry Rvb = 3.5); conditions: time 75.0 min
Enterococcus faecalis [2] = assay: Antimicrobial activity against antibiotic-susceptible Enterococcus faecalis ATCC 29212 assessed as inhibition of visible growth measured after 20 to 24 hrs incubation by CLSI method; type: functional; conditions: time 20-24 hrs
Staphylococcus aureus [3] = assay: Antimicrobial activity against Staphylococcus aureus ATCC 25923 assessed as eradication of biofilm measured after 24 hrs incubation by Calgary method; type: functional
Staphylococcus aureus [4] = assay: Antimicrobial activity against antibiotic-resistant Staphylococcus aureus ATCC 700699 assessed as inhibition of visible growth measured after 20 to 24 hrs incubation by CLSI method; type: functional; conditions: time 20-24 hrs
Staphylococcus aureus [5] = assay: In vivo antimicrobial activity against Staphylococcus aureus USA300 infected in Caenorhabditis elegans AU37 nematodes assessed as viability of nematodes incubated for 5 days by susceptibility test; type: functional; conditions: USA300, 120 h, time 5 day
Enterococcus faecium = assay: Antimicrobial activity against antibiotic-resistant Enterococcus faecium ATCC 700221 assessed as inhibition of visible growth measured after 20 to 24 hrs incubation by CLSI method; type: functional; conditions: time 20-24 hrs
Enterococcus faecalis [6] = assay: Antimicrobial activity against antibiotic-susceptible Enterococcus faecalis ATCC 29212 assessed as eradication of biofilm measured after 24 hrs incubation by Calgary method; type: functional
Enterococcus faecalis [7] = assay: Antimicrobial activity against antibiotic-resistant Enterococcus faecalis ATCC 51299 assessed as inhibition of visible growth measured after 20 to 24 hrs incubation by CLSI method; type: functional; conditions: time 20-24 hrs
Staphylococcus aureus [8] = assay: In vivo antimicrobial activity against Staphylococcus aureus UAMS-1 infected in Caenorhabditis elegans AU37 nematodes assessed as viability of nematodes incubated for 5 days by susceptibility test; type: functional; conditions: UAMS-1, 120 h, time 5 day
Staphylococcus aureus [9] = assay: Antimicrobial activity against methicilline-resistant Staphylococcus aureus ATCC 700699 persisters assessed as bacterial killing at 32 time of MIC concentration measured for every 2 hrs upto 8 hrs by Persisters time course assay; type: functional, organism-based
Bacillus subtilis = assay: Antimicrobial activity against antibiotic-resistant Bacillus subtilis ATCC 6623 assessed as inhibition of visible growth measured after 20 to 24 hrs incubation by CLSI method; type: functional; conditions: time 20-24 hrs
Staphylococcus aureus [10] = assay: Antimicrobial activity against antibiotic-resistant Staphylococcus aureus ATCC 33591 assessed as inhibition of visible growth measured after 20 to 24 hrs incubation by CLSI method; type: functional; conditions: time 20-24 hrs
Staphylococcus aureus [11] = assay: Antimicrobial activity against antibiotic-resistant Staphylococcus aureus ATCC 33592 assessed as inhibition of visible growth measured after 20 to 24 hrs incubation by CLSI method; type: functional; conditions: time 20-24 hrs
[12] = test system: Panel NCI-60 (60 carcinoma cell lines); assay: Cytotoxicity against human panel NCI-60 (60 carcinoma cell lines)cells assessed as cell viability at 10 uM measured after 24 hrs by resazurin assay; type: functional, cell-based
Staphylococcus aureus [13] = assay: Antimicrobial activity against Staphylococcus aureus ATCC 25923 assessed as inhibition of visible growth measured after 20 to 24 hrs incubation by CLSI method; type: functional; conditions: time 20-24 hrs
Staphylococcus aureus [14] = assay: Antimicrobial activity against antibiotic-resistant Staphylococcus aureus ATCC BAA-2312 assessed as inhibition of visible growth measured after 20 to 24 hrs incubation by CLSI method; type: functional; conditions: time 20-24 hrs
[15] = test system: Staphylococcus epidermidis; assay: Antimicrobial activity against antibiotic-resistant Staphylococcus epidermidis ATCC 700296 assessed as inhibition of visible growth measured after 20 to 24 hrs incubation by CLSI method; type: functional; conditions: time 20-24 hrs
Staphylococcus aureus [16] = assay: Bactericidal activity in antibiotic-resistant Staphylococcus aureus ATCC 700699 assessed as reduction in viable cell count at 4 times of MIC measured upto 24 hrs by time kill assay; type: functional, organism-based

Row | Compound | MIC (Staphylococcus aureus [1]) | Activity (Cell membrane) | MIC (Enterococcus faecalis [2]) | MBEC (Staphylococcus aureus [3]) | MIC (Staphylococcus aureus [4]) | MIC (Staphylococcus aureus [5]) | MIC (Enterococcus faecium) | MBEC (Enterococcus faecalis [6]) | MIC (Enterococcus faecalis [7]) | MIC (Staphylococcus aureus [8]) | Activity (Staphylococcus aureus [9]) | MIC (Bacillus subtilis) | MIC (Staphylococcus aureus [10]) | MIC (Staphylococcus aureus [11]) | Activity [12] | MIC (Staphylococcus aureus [13]) | MIC (Staphylococcus aureus [14]) | MIC [15] | Activity (Staphylococcus aureus [16])
1 | CCCCCCCCCC(=O)N[C@@H](Cc1c[nH]c2ccccc12)C(=O)N[C@H](CC(N)=O)C(=O)N[C@@H](CC(=O)O)C(=O)N[C@@H]1C(=O)NCC(=O)N[C@@H](CCCN)C(=O)N[C@@H](CC(=O)O)C(=O)N[C@H](C)C(=O)N[C@@H](CC(=O)O)C(=O)NCC(=O)N[C@H](CO)C(=O)N[C@@H]([C@H](C)CC(=O)O)C(=O)N[C@@H](CC(=O)c2ccccc2N)C(=O)O[C@@H]1C | 4 µg/mL (≈ 2.47 µM) | 7.02% | 16 µg/mL (≈ 9.87 µM) | >32 µg/mL | 8 µg/mL (≈ 4.94 µM) | 4 µg/mL (≈ 2.47 µM) | 16 µg/mL (≈ 9.87 µM) | 16 µg/mL | 16 µg/mL (≈ 9.87 µM) | 4 µg/mL (≈ 2.47 µM) |  |  |  |  |  |  |  |  | 
2 | O=C(O)c1ccc(-n2cc(CNc3cc(Br)cc(C(F)(F)F)c3)c(-c3cccc(F)c3)n2)cc1 | 1 µg/mL (≈ 1.87 µM) |  | 4 µg/mL (≈ 7.49 µM) | 4 µg/mL | 2 µg/mL (≈ 3.74 µM) | 1 µg/mL (≈ 1.87 µM) | 2 µg/mL (≈ 3.74 µM) | 4 µg/mL | 4 µg/mL (≈ 7.49 µM) | 1 µg/mL (≈ 1.87 µM) | Active | 1 µg/mL (≈ 1.87 µM) | 1 µg/mL (≈ 1.87 µM) | 2 µg/mL (≈ 3.74 µM) | inactive | 2 µg/mL (≈ 3.74 µM) | 1 µg/mL (≈ 1.87 µM) | 4 µg/mL (≈ 7.49 µM) | Active

Source: ChEMBL document CHEMBL5365500, “Development and Antibacterial Properties of 4-[4-(Anilinomethyl)-3-phenylpyrazol-1-yl]benzoic Acid Derivatives as Fatty Acid Biosynthesis Inhibitors” (J Med Chem, 2023)
